# Data reported in patent US10294202B2, “Pyrrolidinones as herbicides” (FMC Corporation, priority 2013, dated 2019).
# Read-outs that look alike come from different tables or passages of the source.
# Assays:
# crabgrass, large = experiment: Test A pre-/postemergence herbicide test; format: in vivo, Digitaria sanguinalis; conditions: for Crabgrass, Large plant response rating: Preemergence, visual rating on 0 to 100 scale (0 no effect, 100 complete control); for pest or weed control at 125 g/ha / pest or weed control at 500 g/ha: Digitaria sanguinalis, 240 h, read-out: Plant response rating, Crabgrass, Large
# Outline: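 Directed soil spray to seeded pots (preemergence) or spray onto one- to two-leaf seedlings 2–10 cm tall (postemergence); loam/sand substrate throughout. Evaluated visually after about 10 days against untreated plants, 0 = no effect, 100 = complete control.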
# nutsedge, yellow = experiment: Test E preemergence herbicide test; format: in vivo, Cyperus esculentus; set-up: key: 0 = no effect, 100 = complete control
# Text: Seeds of plant species selected from corn (Zea mays), soybean (Glycine max), velvetleaf (Abutilon theophrasti), lambsquarters (Chenopodium album), wild poinsettia (Euphorbia heterophylla), pigweed, palmer (palmer pigweed, Amaranthus palmeri), waterhemp (common waterhemp, Amaranthus rudis), surinam grass (Brachiaria decumbens), crabgrass, large (large crabgrass, Digitaria sanguinalis), crabgrass, Brazil (Brazilian crabgrass, Digitaria horizontalis), panicum, fall (fall panicum, Panicum dichotomiflorum), foxtail, giant (giant foxtail, Setaria faberii), foxtail, green (green foxtail, Setaria viridis), goosegrass (Eleusine indica), johnsongrass (Sorghum halepense), ragweed (common ragweed, Ambrosia elatior), barnyardgrass (Echinochloa crus-galli), sandbur (southern sandbur, Cenchrus echinatus), arrowleaf […] rhombifolia), ryegrass, Italian (Italian ryegrass, Lolium multiflorum), dayflower, VA (Virginia dayflower, Commelina virginica), field bindweed (Convolvulus arvensis), morningglory (Ipomoea coccinea), nightshade (eastern black nightshade, Solanum ptycanthum), kochia (Kochia scoparia), nutsedge, yellow (yellow nutsedge, Cyperus esculentus), cocklebur (common cocklebur, Xanthium strumarium), smartweed (ladysthumb smartweed, Polygonum Persicaria) and beggarticks (hairy beggarticks, Bidens pilosa), were planted into a silt loam soil and treated preemergence with test chemicals formulated in a non-phytotoxic solvent mixture which included a surfactant. Treated plants and controls were maintained in a greenhouse for 21 days, after which time all species were compared to controls and visually evaluated. Plant response ratings, summarized in Table E, are based on a scale of 0 to 100 where 0 is no effect and 100 is complete control. A dash (-) response means no test result.
# chickweed = experiment: Test C postemergence herbicide test; format: in vivo, Stellaria media
# Text: At the same time, plants selected from these crop and weed species and also barley (winter barley, Hordeum vulgare), […]), chickweed (common chickweed, Stellaria media), deadnettle (henbit deadnettle, Lamium amplexicaule), and canarygrass (littleseed canarygrass, Phalaris minor) were planted in pots containing Redi-Earth® planting medium (Scotts Company, 14111 Scottslawn Road, Marysville, Ohio 43041) comprising spaghnum peat moss, vermiculite, wetting agent and starter nutrients and treated with postemergence applications of test chemicals formulated in the same manner. Plants ranged in height from 2 to 18 cm (1- to 4-leaf stage) for postemergence treatments. Treated plants and controls were maintained in a greenhouse for 13 to 15 days, after which time all species were compared to controls and visually evaluated. Plant response ratings, summarized in Table C, are based on a scale of 0 to 100 where 0 is no effect and 100 is complete control. A dash (-) response means no test result.
# [1] = Postemergence, 125 g ai/ha, 0 to 100 scale, 0 no effect, 100 complete control
# [2] = Postemergence, 500 g ai/ha, 0 to 100 scale (0 no effect, 100 complete control)
# [3] = preemergence, 500 g ai/ha, 0 to 100 scale
# [4] = 31 g ai/ha, scale 0 (no effect) to 100 (complete control)
# [5] = 62 g ai/ha, scale 0 to 100 (0 no effect, 100 complete control)
# [6] = 125 g ai/ha, scale 0 to 100 (0 no effect, 100 complete control)
# [7] = 250 g ai/ha, scale 0 to 100 (0 no effect, 100 complete control)
# [8] = 31 g ai/ha, scale 0 to 100 (0 no effect, 100 complete control)
# [9] = 62 g ai/ha, scale 0 (no effect) to 100 (complete control)
# [10] = post-emergence, Postemergence, 125 g ai/ha, 0 to 100 scale, 0 no effect, 100 complete control
# [11] = post-emergence, Postemergence, 500 g ai/ha, 0 to 100 scale (0 no effect, 100 complete control)
# [12] = pre-emergence, preemergence, 500 g ai/ha, 0 to 100 scale
Structure (SMILES),"Plant response rating, Crabgrass, Large (crabgrass, large; [1])","Plant response rating, Crabgrass, Large (crabgrass, large; [2])","Crabgrass, Large plant response rating (crabgrass, large; 125 g ai/ha)","Plant response rating, Crabgrass, Large (crabgrass, large; [3])","Plant response rating, Chickweed (chickweed; [4])","Plant response rating, Chickweed (chickweed; [5])","Plant response rating, Chickweed (chickweed; [6])","Plant response rating, Chickweed (chickweed; [7])",further results
O=C1NCC(c2ccc(F)c(F)c2)C1C(=O)Nc1ccccc1C(F)(F)F (racemic) [Compound 6],60,80,80,90,–,–,–,–,–
O=C1NCC(c2ccc(Cl)c(Cl)c2)C1C(=O)Nc1ccccc1F (racemic) [Compound 14],80,90,90,90,–,–,–,–,"Plant response rating, Nutsedge, Yellow (nutsedge, yellow; 16 g ai/ha): 0; Plant response rating, Nutsedge, Yellow (nutsedge, yellow; 31 g ai/ha): 0; Plant response rating, Nutsedge, Yellow (nutsedge, yellow; 62 g ai/ha): 0; Plant response rating, Nutsedge, Yellow (nutsedge, yellow; 125 g ai/ha): 0; Plant response rating, Nutsedge, Yellow (nutsedge, yellow; 250 g ai/ha): 0"
O=C1NCC(c2ccc(F)c(C(F)(F)F)c2)C1C(=O)Nc1cccc(F)c1F (racemic) [Compound 77],80,80,90,90,–,–,–,–,–
Cc1c(F)cccc1NC(=O)C1C(=O)NCC1c1ccc(F)c(F)c1 (racemic) [Compound 106],–,–,–,–,0,0,5,30,"Plant response rating, Crabgrass, Large (crabgrass, large; Postemergence, 1000 g ai/ha, 0 to 100 scale (0 no effect, 100 complete control)): 90; Plant response rating, Crabgrass, Large (crabgrass, large; preemergence, 1000 g ai/ha, 0 to 100 scale): 90"
Cc1ccccc1NC(=O)C1C(=O)NCC1c1cccc(C(F)(F)F)c1 (racemic) [Compound 109],–,–,–,–,0,0,0,0,–
O=C1NCC(c2ccc(C(F)(F)F)cc2)C1C(=O)Nc1cccc(F)c1F (racemic) [Compound 202],–,–,–,–,–,–,85,85,"Plant response rating, Chickweed (chickweed; [8]): 80; Plant response rating, Chickweed (chickweed; [9]): 80; Plant response rating, Nutsedge, Yellow (nutsedge, yellow; 31 g ai/ha): 0; Plant response rating, Nutsedge, Yellow (nutsedge, yellow; 62 g ai/ha): 0; Plant response rating, Nutsedge, Yellow (nutsedge, yellow; 125 g ai/ha): 0; Plant response rating, Nutsedge, Yellow (nutsedge, yellow; 250 g ai/ha): 0"
O=C1NCC(c2ccc(OC(F)F)cc2)C1C(=O)Nc1cccc(F)c1F (racemic) [Compound 350],–,–,–,–,–,–,–,–,"Plant response rating, Nutsedge, Yellow (nutsedge, yellow; 31 g ai/ha): 0; Plant response rating, Nutsedge, Yellow (nutsedge, yellow; 62 g ai/ha): 0; Plant response rating, Nutsedge, Yellow (nutsedge, yellow; 125 g ai/ha): 0; Plant response rating, Nutsedge, Yellow (nutsedge, yellow; 250 g ai/ha): 15"
O=C1NCC(c2cc(F)c(F)c(F)c2)C1C(=O)Nc1cccc(F)c1F (stereo not shown) [Compound 48],80,80,90,90,0,30,30,–,"Plant response rating, Chickweed (chickweed; 16 g ai/ha, scale 0 to 100 (0 no effect, 100 complete control)): 0"
O=C1NCC(c2cc(F)c(F)cc2F)C1C(=O)Nc1cccc(F)c1F (stereo not shown) [Compound 50],80,80,90,90,0,0,0,5,–
O=C1NCC(c2ccc(Cl)c(F)c2)C1C(=O)Nc1cccc(F)c1F (stereo not shown) [Compound 52],80,80,90,90,–,25,45,60,–
O=C1NCC(c2ccc(F)c(Cl)c2)C1C(=O)Nc1ccccc1F (stereo not shown) [Compound 60],80,90,90,90,0,10,30,–,–
O=C1NCC(c2cccc(OC(F)(F)F)c2)C1C(=O)Nc1ccccc1F (stereo not shown) [Compound 69],70,90,90,90,–,–,–,–,–
"O=C1NCC(c2ccc(C(F)(F)F)cc2)C1C(=O)Nc1ccccc1F (stereo not shown) [Compound 79, N-(2-fluorophenyl)-2-oxo-4-[4-(trifluoromethyl)phenyl]-3-pyrrolidinecarboxamide]",–,–,90,–,60,80,90,90,"pest or weed control at 125 g/ha (crabgrass, large; [10]): 80%; pest or weed control at 500 g/ha (crabgrass, large; [11]): 90%; pest or weed control at 500 g/ha (crabgrass, large; [12]): 90%"
"O=C1NCC(c2ccc(C(F)(F)F)cc2)C1C(=O)Nc1cccc(F)c1F (stereo not shown) [Compound 80, N-(2,3-difluorophenyl)-2-oxo-4-[4-(trifluoromethyl)phenyl]-3-pyrrolidinecarboxamide]",–,–,90,–,70,85,90,90,"pest or weed control at 125 g/ha (crabgrass, large; [10]): 80%; pest or weed control at 500 g/ha (crabgrass, large; [11]): 90%; pest or weed control at 500 g/ha (crabgrass, large; [12]): 90%; Plant response rating, Nutsedge, Yellow (nutsedge, yellow; 16 g ai/ha): 0; Plant response rating, Nutsedge, Yellow (nutsedge, yellow; 31 g ai/ha): 0; Plant response rating, Nutsedge, Yellow (nutsedge, yellow; 62 g ai/ha): 0; Plant response rating, Nutsedge, Yellow (nutsedge, yellow; 125 g ai/ha): 0; Plant response rating, Nutsedge, Yellow (nutsedge, yellow; 250 g ai/ha): 0"
"O=C1NCC(Br)(c2ccccc2)C1C(=O)Nc1ccccc1F (stereo not shown) [Compound 92, 4-bromo-N-(2-fluorophenyl)-2-oxo-4-phenyl-3-pyrrolidinecarboxamide]",–,–,80,–,–,–,–,–,"pest or weed control at 125 g/ha (crabgrass, large; [10]): 20%; pest or weed control at 500 g/ha (crabgrass, large; [11]): 70%; pest or weed control at 500 g/ha (crabgrass, large; [12]): 90%"
"O=C1NCC(c2ccccc2)C1(Br)C(=O)Nc1ccccc1F (stereo not shown) [Compound 93, 3-bromo-N-(2-fluorophenyl)-2-oxo-4-phenyl-3-pyrrolidinecarboxamide]",–,–,90,–,–,–,–,–,"pest or weed control at 125 g/ha (crabgrass, large; [10]): 50%; pest or weed control at 500 g/ha (crabgrass, large; [11]): 80%; pest or weed control at 500 g/ha (crabgrass, large; [12]): 90%"
O=C1NCC(c2cccc(OC(F)F)c2)C1C(=O)Nc1cccc(F)c1F (stereo not shown) [Compound 224],–,–,–,–,–,–,70,85,"Plant response rating, Chickweed (chickweed; [8]): 70; Plant response rating, Chickweed (chickweed; [9]): 70"
O=C1NCC(c2cccc(Br)c2)C1C(=O)Nc1ccc(F)c(F)c1F (stereo not shown) [Compound 310],–,–,–,–,–,–,90,85,"Plant response rating, Chickweed (chickweed; [8]): 20; Plant response rating, Chickweed (chickweed; [9]): 45"
O=C1NCC(c2cccc(C(F)(F)F)c2)C1C(=O)Nc1ccc(F)c(F)c1F (stereo not shown) [Compound 345],–,–,–,–,–,–,–,30,–
O=C1NCC(c2ccc(F)c(F)c2)C1C(=O)Nc1ccc(F)c(F)c1F (stereo not shown) [Compound 346],–,–,–,–,–,–,40,85,"Plant response rating, Chickweed (chickweed; [8]): 40; Plant response rating, Chickweed (chickweed; [9]): 65"
